Measurements reported in the METLIN SMRT retention time set (Domingo-Almenara et al. 2019).

Test: gradient 5% acetonitrile 3 min, to 50% in 2 min, to 85% in 15 min, held 3 min, 100 µL/min
Settings: column: Zorbax Extend-C18 2.1 x 50 mm; eluents: water / acetonitrile, 0.1% formic acid
Procedure, shortened: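 Pure standards were run in mixtures of ~100 molecules by HPLC coupled to a quadrupole time-of-flight mass spectrometer. The column was a Zorbax Extend-C18 (2.1 × 50 mm, 1.8 μm) at 100 μL/min, with water and acetonitrile each containing 0.1% formic acid, in positive and negative ionization mode. Dead and dwell volumes were 40 μL and 900 μL. Retention time was taken from computationally picked adduct peaks, each manually inspected, with data collected over 3 months.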

SMILES	RP-LC retention time [s]
Cc1ccc(S(=O)(=O)N(C)C)cc1-c1nnc(-c2ccc(F)cc2)o1	976
CCCN1C(=O)COc2cc(-c3noc(C(=O)NC4CC4)n3)ccc21	841
O=C(NCc1ccc(N2CCOCC2)cc1)c1cn2c(n1)CSCC2	604
O=c1c2cc(-c3ccc(F)cc3)nn2ccn1Cc1noc(CN2CCCCCCC2)n1	719
COC(=O)c1sc(-c2ccccc2)cc1NC(=O)c1ccccc1[N+](=O)[O-]	1110
Cc1cc(C)cc(NC(=O)C2CCN(S(=O)(=O)c3ccc4c(c3)CCCC(=O)N4)CC2)c1	834
Cc1nc2c(c(Nc3cc(C(=O)O)ccc3C)n1)CCC2	584
O=[N+]([O-])c1ccc2c(c1)S(=O)c1ccccc1-2 (stereo not drawn)	782
Cc1ccc(-c2ncc(C(=O)NCCC3=CCCCC3)c(-c3ccncc3)n2)cc1	1050
CCOc1ccc2nc(Nc3ncc4c(n3)CC(c3cccc(Cl)c3)CC4=O)nc(C)c2c1 (stereo not drawn)	899
Cc1cc(C)n(-c2ccc(C(=O)Nc3ccc(O)cc3)cn2)n1	738
CCOC(=O)c1nn(-c2ccccc2C)c(=O)cc1NCc1ccc2c(c1)OCO2	874
O=C(CCCn1nc(-c2ccc(F)cc2)ccc1=O)Nc1nc2ccccc2[nH]1	584
CC1OC(O[C@@H]2C=C3CC[C@@H]4[C@H](CC[C@]5(C)[C@@H](c6ccc(=O)oc6)CC[C@]45O)[C@@]3(C)CC2)C(O)C(O)C1O (stereo partly drawn)	691
O=C(c1csc(S(=O)(=O)N2CCC(C(=O)N3CCCC3)CC2)c1)N1CCCC1	661
O=C(NCCC1=CCCCC1)C1CCCN(c2nccnc2Sc2ccccc2)C1 (stereo not drawn)	1170
COc1ccccc1NC(=O)N1CCc2nc(CNC(=O)C3CCC3)n(C)c2C1	604
COC(=O)c1cnn(-c2cccc(C)c2)c1-n1cccc1	964
O=C(NC1CC1)c1ccc(OCC2CCCN(C(=O)c3ccc(F)c(F)c3)C2)cc1 (stereo not drawn)	820
Cc1cc(F)ccc1NC(=O)Cn1c(=O)cc(-c2nc(C(C)C)no2)c2ccccc21	996
CCOC(=O)C1CCN(c2nc3ccccc3n2Cc2cc(C)ccc2C)CC1	858
Cc1ccc(C(=O)N2CCc3[nH]nc(C(=O)N(C)C)c3C2)cc1C	657

SMILES	RP-LC retention time [s]
CNC(=O)c1cc(C)nc2c(C)cc(C)cc12	568
COc1ccccc1-c1nnc(-c2ccc(C)c(S(=O)(=O)N3CCOCC3)c2)o1	867
COc1ccc(-c2nc3cccnc3n2C2CCN(C(=O)NC(C)C)C2)cc1 (stereo not drawn)	667
O=C([C@@H]1C[C@H](F)CN1C(=O)Cc1ccsc1)N1CCCCC1	657
CCOc1nc2ccccc2nc1N1CCCC(C(=O)Nc2c(Cl)cccc2Cl)C1 (stereo not drawn)	1290
COc1cc(NC(=O)CN2CCc3[nH]c4c(C)ccc(F)c4c(=O)c3C2)cc(OC)c1	604
Cc1nc(-c2cnccn2)nc2c1CCC(=O)N2Cc1ccncc1	510
Cc1cccc(CN2CC(n3cc(COc4ccc(F)cc4)nn3)C2)c1	605
COCCCNC(=O)C1CCCN(c2nnc(C)c3c(C)n(-c4ccc(OC)cc4)nc23)C1 (stereo not drawn)	633
COCCCNC(=O)C1(c2ccc(NC(=O)c3ccc(Br)cc3)cc2)CCC1	820
O=C(CN1C(=O)CCCc2cc(S(=O)(=O)N3CCCC3)ccc21)Nc1cccc(Cl)c1	890
O=C(CCNNC(=O)c1ccncc1)NCc1ccccc1	636
O=C(NCCn1c(=O)n(Cc2ccccc2)c2cccnc21)c1ccco1	725
CC(=O)N1CCC(c2noc(-c3ccccn3)n2)C1 (stereo not drawn)	596
Cc1nn(CCC(=O)NCCC2=CCCCC2)c(=O)c2nn(-c3ccccc3)c(C)c12	867
CC(C)Cn1ccc2c(cc(C(=O)Nc3cc(F)ccc3F)n2C)c1=O	876
CCOc1ccc(-n2ccnc(NC(=O)Nc3cccc(OC)c3)c2=O)cc1	980
O=C1CCSc2c1cccc2C(=O)N1CCN(c2ccc(F)cc2)CC1	882
Cc1ccc(C)c(NC(=O)C2CC(=O)N(c3ccc4c(c3)CCN4C(=O)C3CC3)C2)c1 (stereo not drawn)	768
COc1ccc(N2C(=O)CCC(C(=O)N3CC(C)CC(C)C3)C2c2ccc(F)cc2)cc1 (stereo not drawn)	896
Cn1nnc2cc(C(=O)NCc3ccc4c(c3)OCO4)ccc21	686
COc1ccc(-n2nnc(-c3nc(-c4cc(OC)ccc4OC)cs3)c2N)cc1	1080

SMILES	RP-LC retention time [s]
CCN(CC)CCCNC(=O)C1CCCN(c2ncnc3c2nc2n3CCCCC2)C1 (stereo not drawn)	556
Cc1ccc(C(=O)Nc2c(C(=O)NCc3ccc4c(c3)OCO4)[nH]c3ccc(C)cc23)cc1	979
COCCn1cc(CCNC(=O)Nc2ccc(Br)cc2)c2cccnc21	778
O=C(c1cccc2[nH]ccc12)N1CCC2(CC1)N=C(c1cccc(Br)c1)NO2	849
COCc1cc(=O)n(CC(=O)Nc2ccc(F)cc2)c(N)n1	585
Fc1cccc(CN2CCc3nc(N4CCN(c5ncccn5)CC4)ncc3C2)c1	633
CCc1ccc(N2C(=O)CN(S(=O)(=O)CC)CC2(C)C(=O)NCc2ccccc2)cc1 (stereo not drawn)	868
O=S1(=O)C[C@H](N2CCN(c3ccccc3F)CC2)[C@@H](S(=O)(=O)c2ccc(Cl)cc2)C1	986
Cc1c(C(=O)NC2CC2)cnn1-c1ccc(-c2nc(C(C)(C)C)no2)cn1	947
CCC(=O)N(C1CCOCC1)C1CCN(S(=O)(=O)c2ccc(C(F)(F)F)cc2)CC1	892
O=C(C1CCC1)N1CCc2sc(S(=O)(=O)NCc3ccc(Cl)cc3)cc2C1	916
Cc1cc(=O)n(CC(=O)Nc2ccc(C)c(C)c2)c(N2CCOCC2)n1	697
Cc1sc2nc(SCC(=O)Nc3ccc(S(N)(=O)=O)cc3)nc(N)c2c1C	682
Cn1c(=O)c(C(=O)NC2CC2)nc2ccccc21	644
CCOC(=O)c1[nH]c(C)c(C(=O)C(C)N(C(=O)c2cccc(OC)c2)C2CC2)c1C (stereo not drawn)	879
CC1Cc2ccccc2N1C(=O)C1CCN(C(=O)c2cc(-c3ccncc3)n[nH]2)CC1 (stereo not drawn)	645
CN(C)S(=O)(=O)c1ccc(-c2nnc(C(=O)NC3CCCCCC3)o2)cc1	926
Fc1ccc(-c2nc(-c3ccc4nncn4c3)no2)cc1	810
CCOc1ccn(-c2ccc(F)cc2)c(=O)c1C(=O)Nc1ccc(Oc2ccnc(N)c2Cl)c(F)c1	700
CNC(=O)N1CCCN(C2=NS(=O)(=O)C(c3ccc(Cl)cc3)=C2C)CC1	703
Cc1ncc2c(n1)C[C@@H]1CC[C@H]2N1S(=O)(=O)c1ccccc1	695
COCCn1cc2c3c(cccc31)CN(C(=O)Cc1ccccc1Cl)CC2	975

SMILES	RP-LC retention time [s]
Clc1ccc2ncnc(NCc3ccc4c(c3)OCO4)c2c1	694
CC(C)NC(=O)c1cccc(N2C(=O)NC3CC2(C)Oc2ccc(Br)cc23)c1 (stereo not drawn)	793
Cc1ccc(C)c(N2CCN(C(=O)c3csc(C(=O)NC4CC4)n3)CC2)c1	968
N#Cc1ccc(C(=O)Nc2cnc(N3CCCCC3)nc2)cc1	862
O=C(NCc1ccccc1Br)c1ccc(-c2cncnc2)nc1	748
CCCNC(=O)c1cnn(-c2ccc(SCC)nn2)c1C	777
Cc1cncn(CC(=O)N2CCN(S(C)(=O)=O)CC2)c1=O	528
Cc1onc(-c2cccc(Br)c2)c1C(=O)NCCCOC(C)C	880
Cc1c(C(=O)O)nnn1-c1ccc(F)c(Cl)c1	726
COc1ccc(C(=O)Nc2cnn(C)c(=O)c2N2CCCCC2)cc1	923
O=c1[nH][nH]c2nnc(-c3c(-c4ccccc4)nn4ccccc34)cc12	679
Cc1ccccc1NC(=O)C1CCCN(C(=O)c2nn(C)c3c2CN(C(=O)CC2CCCC2)CC3)C1 (stereo not drawn)	877
O=C(Nc1cnc(-c2cccc(Cl)c2)nc1)c1cccs1	1070
Cc1cc(F)cc2c(=O)c3c([nH]c12)CCN(CC(=O)Nc1cccc(F)c1)C3	620
CN(C)c1nn(CC(=O)Nc2ccc(S(C)(=O)=O)cc2)cc1-c1ccccc1	786
CCOC(=O)c1ccccc1NC(=O)Cn1cnc2nc(N3CCCC(C(=O)NC)C3)sc2c1=O (stereo not drawn)	640
CCc1nnc(NC(=O)CN2C(=O)C3CCCCN3c3ccc(S(=O)(=O)N(C)C)cc32)s1 (stereo not drawn)	800
O=C(NCC(O)c1ccc(C(F)(F)F)cc1)C1(c2ccccc2)CCOCC1 (stereo not drawn)	785
Cc1ccnc(NC(c2ccccc2)c2ccc3cccnc3c2O)c1 (stereo not drawn)	752
Cc1cc(Cl)ccc1NC(=O)C1CCN(S(C)(=O)=O)c2ccccc2O1 (stereo not drawn)	882
CCOC(=O)c1ccc2nc(NC(=O)c3cccc([N+](=O)[O-])c3)sc2c1	959
CC(=O)N1CCc2cc(N3CC(C(=O)Nc4ccc(C)cc4F)CC3=O)ccc21 (stereo not drawn)	717
